Data taken from PubChem BioAssay AID2060624 (Molecular Pharmacology Branch, DTP, NCI, 2025).
Where “and” joins values, the source holds several entries; their conditions need not be identical. Equal entries are not always repeated.

Test system: 217524-143-R1-J4-PDC spheroids with HUVEC/MSC, viability
Assay: Anticancer human tumor 217524-143-R1-J4-PDC patient-derived pancreatic carcinoma cell line growth inhibition [CLK]
Conditions: for viability, T/C: stronger effect = lower value
Procedure, shortened: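 Patient-derived tumor cells grown as complex spheroids with HUVEC endothelial cells and mesenchymal stem cells, treated with drug combinations. Concentrations descend in half-log steps from near clinical Cmax, or from 10 microM if Cmax unknown.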
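Also: spheroids exposed to agents for seven days before reading.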
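For viability, T/C in this document: 100% = DMSO vehicle control viability.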

## CCCS(=O)(=O)Nc1ccc(F)c(C(=O)c2c[nH]c3ncc(-c4ccc(Cl)cc4)cc23)c1F + CNC(=O)c1ccc(Nc2nc(OC3CCCC3)c3c(-c4ccc5nc(C)oc5c4)c[nH]c3n2)c(OC)c1
Curve of first compound, second compound 0.0316 µM
  IC50: > 10000 nM
Curve of first compound, second compound 0.1 µM
  IC50: < 31.6 nM
Curve of first compound, second compound 0.316 µM
  IC50: < 31.6 nM
Curve of first compound, second compound 1 µM
  IC50: < 31.6 nM
Curve of first compound, second compound 3.16 µM
  IC50: < 31.6 nM
Curve of first compound, second compound 10 µM
  IC50: < 31.6 nM
Second compound 0.0316 µM, first compound 0.0316 µM
  viability, T/C: 76.2%
Second compound 0.0316 µM, first compound 0.1 µM
  viability, T/C: 83%
Second compound 0.0316 µM, first compound 0.316 µM
  viability, T/C: 99.1%
Second compound 0.0316 µM, first compound 1 µM
  viability, T/C: 130%
Second compound 0.0316 µM, first compound 3.16 µM
  viability, T/C: 139%
Second compound 0.0316 µM, first compound 10 µM
  viability, T/C: 57.1%
Second compound 0.1 µM, first compound 0.0316 µM
  viability, T/C: 40.1%
Second compound 0.1 µM, first compound 0.1 µM
  viability, T/C: 49.2%
Second compound 0.1 µM, first compound 0.316 µM
  viability, T/C: 49.9%
Second compound 0.1 µM, first compound 1 µM
  viability, T/C: 67.3%
Second compound 0.1 µM, first compound 3.16 µM
  viability, T/C: 76.6%
Second compound 0.1 µM, first compound 10 µM
  viability, T/C: 40.1%
Second compound 0.316 µM, first compound 0.0316 µM
  viability, T/C: 41.5%
Second compound 0.316 µM, first compound 0.1 µM
  viability, T/C: 38.8%
Second compound 0.316 µM, first compound 0.316 µM
  viability, T/C: 45.6%
Second compound 0.316 µM, first compound 1 µM
  viability, T/C: 58.1%
Second compound 0.316 µM, first compound 3.16 µM
  viability, T/C: 59.2%
Second compound 0.316 µM, first compound 10 µM
  viability, T/C: 31.2%
Second compound 1 µM, first compound 0.0316 µM
  viability, T/C: 35.1%
Second compound 1 µM, first compound 0.1 µM
  viability, T/C: 35.1%
Second compound 1 µM, first compound 0.316 µM
  viability, T/C: 46.9%
Second compound 1 µM, first compound 1 µM
  viability, T/C: 45%
Second compound 1 µM, first compound 3.16 µM
  viability, T/C: 49.3%
Second compound 1 µM, first compound 10 µM
  viability, T/C: 24.1%
Second compound 3.16 µM, first compound 0.0316 µM
  viability, T/C: 32.1%
Second compound 3.16 µM, first compound 0.1 µM
  viability, T/C: 31.6%
Second compound 3.16 µM, first compound 0.316 µM
  viability, T/C: 34.6%
Second compound 3.16 µM, first compound 1 µM
  viability, T/C: 47.6%
Second compound 3.16 µM, first compound 3.16 µM
  viability, T/C: 42.1%
Second compound 3.16 µM, first compound 10 µM
  viability, T/C: 17.6%
Second compound 10 µM, first compound 0.0316 µM
  viability, T/C: 29.6%
Second compound 10 µM, first compound 0.1 µM
  viability, T/C: 26.5%
Second compound 10 µM, first compound 0.316 µM
  viability, T/C: 38.7%
Second compound 10 µM, first compound 1 µM
  viability, T/C: 34.9%
Second compound 10 µM, first compound 3.16 µM
  viability, T/C: 42%
Second compound 10 µM, first compound 10 µM
  viability, T/C: 18%

## CC(=O)O[C@H]1C(=O)[C@@]2(C)[C@H]([C@H](OC(=O)c3ccccc3)[C@]3(O)C[C@H](OC(=O)[C@H](O)[C@@H](NC(=O)c4ccccc4)c4ccccc4)C(C)=C1C3(C)C)[C@]1(OC(C)=O)CO[C@@H]1C[C@@H]2O
Compound 0.0316 µM
  viability, T/C: 12.7% and 12%
Compound 0.1 µM
  viability, T/C: 12.4% and 12.9%
Compound 0.316 µM
  viability, T/C: 10.1% and 12.3%
Compound 1 µM
  viability, T/C: 9.86% and 10.8%
Compound 3.16 µM
  viability, T/C: 13.6% and 14.1%
Compound 10 µM
  viability, T/C: 16% and 16.4%
Curve of compound
  IC50: < 31.6 nM
